In US5807878A, “Tetrasubstituted imidazoles” (Uclaf; Roussel, priority 1994, dated 1998):
Where two headings read alike, the source gives them in different places.

What was measured:
[1] = target: T1, AT1 receptor of angiotensin II (Rattus norvegicus, UniProt P25095); experiment: Test on the AT1 receptor of angiotensin II (displacement of 125I angiotensin II, rat liver membranes); format: binding; conditions: 25° C., 150 minutes, pH 7.4
T1 construct: A fresh membrane preparation obtained from rat's liver is used; from tissue; host or cells: rat liver membranes
T1 sequence (P25095 1-359): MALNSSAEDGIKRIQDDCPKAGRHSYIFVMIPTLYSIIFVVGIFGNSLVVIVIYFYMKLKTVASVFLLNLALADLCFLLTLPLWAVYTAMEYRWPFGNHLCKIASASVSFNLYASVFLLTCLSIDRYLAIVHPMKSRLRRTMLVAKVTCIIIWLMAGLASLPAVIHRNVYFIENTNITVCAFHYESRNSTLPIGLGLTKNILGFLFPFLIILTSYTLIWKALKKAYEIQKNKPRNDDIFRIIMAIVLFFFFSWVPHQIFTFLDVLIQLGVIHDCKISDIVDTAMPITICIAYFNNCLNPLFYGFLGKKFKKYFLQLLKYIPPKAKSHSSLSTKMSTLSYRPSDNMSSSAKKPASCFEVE
Procedure: 1--Test on the AT1 receptor of angiotensin II
(§1) A fresh membrane preparation obtained from rat's liver is used. The tissue is ground up in a polytron in a 50 mM Tris buffer pH 7.4, the grinding is followed by 3 centrifugations at 30,000 g for 15 minutes with intermediate take up of the pellets in the Tris buffer pH 7.4.
The last pellets are suspended in an incubation buffer (20 mM Tris, 135 mM NaCl, 10 mM KCl, 5 mM glucose, 135 mM MgCl2, 0.3 mM PMSF, 0.1 mM bacitracin, 0.1% lysozyme).
(§2) 1 ml aliquoted fractions are distributed in glass tubes and ^125 I angiotensin II (25,000 DPM/tube) and the product to be studied are added. (The product is first tested at 3×10^-5 M three times). When the tested product displaces more than 50% of the radioactivity specifically bound to the receptor, it is tested again according to a range of 7 concentrations in order to determine the concentration which inhibits by 50% the radioactivity specifically bound to the receptor. In this way the 50% inhibitory concentration is determined).
(§3) The non-specific bond is determined by the addition of the product of Example 94 of the European Patent 0,253,310, at 10^-5 M (three times). After incubation at 25° C. for 150 minutes, placing in a water bath at 0° C. for 5 minutes, filteration under vacuum and rinsing with Tris buffer pH 7.4, the radioactivity is counted in the presence of a scintillating solid.
(§4) The result is expressed directly as the 50% inhibitory concentration (IC50), that is to say as the concentration of product studied, expressed in nM, necessary to displace 50% of the specific radioactivity fixed to the receptor studied.

[2] = target: T2, AT2 receptor of angiotensin II (Oryctolagus cuniculus, UniProt G1T351); experiment: Test on the AT2 receptor of angiotensin II (displacement of 125I angiotensin II, rabbit uterus membranes); format: binding; conditions: rabbit uterus membranes (estradiol pre-treated), 10 mM dithiothreitol preincubation, 25° C., 150 minutes, pH 7.4
T2 construct: A fresh membrane preparation obtained from rabbit's uterus is used; from tissue; host or cells: rabbit uterus membranes (estradiol-pretreated, homogenate preincubated with 10 mM dithiothreitol)
T2 sequence (G1T351 1-363): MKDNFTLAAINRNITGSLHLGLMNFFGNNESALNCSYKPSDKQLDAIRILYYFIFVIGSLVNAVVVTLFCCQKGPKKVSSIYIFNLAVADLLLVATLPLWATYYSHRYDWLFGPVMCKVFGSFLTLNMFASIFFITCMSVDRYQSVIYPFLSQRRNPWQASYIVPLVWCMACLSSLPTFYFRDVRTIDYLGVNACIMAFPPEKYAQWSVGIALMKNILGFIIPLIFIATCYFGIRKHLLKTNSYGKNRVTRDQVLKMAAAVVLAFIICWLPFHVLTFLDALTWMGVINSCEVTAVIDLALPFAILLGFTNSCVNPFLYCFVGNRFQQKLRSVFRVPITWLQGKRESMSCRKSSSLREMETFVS
Procedure: 2) Test on the AT2 receptor of angiotensin II
as §1, with “rabbit's uterus” for “rat's liver”, “used, pre-treated 4 days beforehand with 50 ug of estradiol administered by percutaneous route.” for “used.”, “7.4 and” for “7.4,”
The last pellets are suspended in an incubation buffer (20 mM Tris, 135 mM NaCl, 10 mM KCl, 5 mM glucose, 10 mM MgCl2 6H2 O), 0.3 mM PMSF, 0.1 mM bacitracin, 0.1 o/oo lysozyme, pH 7.4).
The homogenate obtained is preincubated for 20 minutes at 25° C. in the presence of 10 mM dithiothreitol, then brought back to 0°-4° C.
as §2, with “The” for “(The”, “times.” for “times).”, “determined.” for “determined).”
as §3, with “[…]” for “non-specific”, “EXP 655 (=PD 123-177 from Warner-Lambert)” for “the product of Example 94 of the European Patent 0,253,310,”, “(in triplicate).” for “(three times).”
as §4

angiotensin II = experiment: Test for antagonistic activity of angiotensin II in the demedullated rat; format: in vivo, rat (male Sprague Dawley); conditions: angiotensin II 0.75 micrograms/kg, read-out: ID50 (50% inhibitory dose of the pressure effect of angiotensin II)
[3] = IV, injected 5 minutes before angiotensin II

SMILES	IC50 [1]	IC50 [2]	ED50 (angiotensin II; [3])	ED50 (angiotensin II; PO)
CCCc1nc(SC)c(C(=O)Nc2nn[nH]n2)n1Cc1ccc(-c2ccccc2S(=O)(=O)NC(=O)NCc2ccccc2)cc1 [Example 15, 4-(methylthio) 1-((2'-(((((phenylmethyl)amino)carbonyl)amino)sulphonyl) (1,1'-biphenyl) 4-yl)methyl) 2-propyl N-(2H-tetrazol 5-yl) 1H-imidazole 5-carboxamide]	0.2 nM	2 nM		
CCCc1nc(SC)c(C(=O)C[S+]([O-])c2ccccc2)n1Cc1ccc(-c2ccccc2S(=O)(=O)NC(=O)NCc2ccccc2)cc1 (stereo not drawn) [Example 20, 4'-((4-(methylthio) 5-(2-(phenylsulphinyl)acetyl) 2-propyl 1H-imidazol-1-yl)methyl) N-(((phenylmethyl)amino)carbonyl) (1,1'-biphenyl) 2-sulphonamide]	0.08 nM	0.8 nM	0.04 mg/kg	0.8 mg/kg
CCCc1nc(SC)c(C(=O)C[S+]([O-])c2ccccc2)n1Cc1ccc(-c2ccccc2S(=O)(=O)NC(=O)NCc2cccs2)cc1 (stereo not drawn) [Example 34, 4'-((4-(methylthio) 5-((phenylsulphinyl)acetyl) 2-propyl 1H-imidazol-1-yl)methyl) N-(((2-thienylmethyl)amino)carbonyl) (1,1'-biphenyl) 2-sulphonamide]	0.05 nM	2.2 nM		
CCCCc1nc(SC)c(C(=O)Nc2nnn[nH]2)n1Cc1ccc(-c2ccccc2S(=O)(=O)NC(=O)NCCC)cc1 [Example 13]	0.24 nM	24 nM	0.12 mg/kg	
CCCc1nc(SC)c(C(=O)C[S+]([O-])c2ccccc2)n1Cc1ccc(-c2ccccc2S(=O)(=O)NC(=O)CCC2CCCC2)cc1 (racemic) [Example 47, (±) N-(4'-((4-(methylthio) 5-((phenylsulphinyl)acetyl) 2-propyl 1H-imidazol 1-yl)methyl) (1,1'-biphenyl-2yl)sulphonyl) cyclopentanepropanamide]	0.09 nM	2.09 nM		
CCCc1nc(SC)c(C(=O)C[S+]([O-])c2ccccc2)n1Cc1ccc(-c2ccccc2S(=O)(=O)NC(=O)NCC2CCCC2)cc1 (racemic) [Example 46, (±) N-(((cyclopentylmethyl)amino)carbonyl) 4'-((4-(methylthio) 5-((phenylsulphinyl)acetyl) 2-propyl 1H-imidazol 1-yl)methyl) (1,1'-biphenyl) 2-sulphonamide]	0.4 nM	2.5 nM		
CCCCc1nc(SC)c(C(=O)C(=O)NCc2ccccc2)n1Cc1ccc(-c2ccccc2S(=O)(=O)NC(=O)NCc2ccccc2)cc1 [Example 11, 2-butyl 4-(methylthio) alpha oxo N-(phenylmethyl) 1-((2'-(((((phenylmethyl)amino)carbonyl)amino)sulphonyl) (1,1'-biphenyl) 4-yl)methyl) 1-H-imidazole 5-acetamide]	0.6 nM	53 nM		

The remaining compounds from weak to strong by IC50 [1], led by results:

IC50 [1]	IC50 [2]	SMILES	ED50 (angiotensin II; [3])	ED50 (angiotensin II; PO)
0.7 nM	6.8 nM	CCCCc1nc(SC)c(C(=O)C(=O)O)n1Cc1ccc(-c2ccccc2S(=O)(=O)NC(=O)NCC2CCCCC2)cc1 [Example 7, 2-butyl 1-((2'-(((((cyclohexylmethyl)amino)carbonyl)amino)sulphonyl) (1,1'-biphenyl) 4-yl)methyl) 4-methylthio alpha oxo-1H-imidazole 5-acetic acid]		
0.3 nM	15 nM	CCCCc1nc(SC)c(C(=O)C[S+](C)[O-])n1Cc1ccc(-c2ccccc2S(=O)(=O)NC(=O)NCc2ccccc2)cc1 (stereo not drawn) [Example 9, 4'-((2-butyl 5-(2-(methylsulphinyl)acetyl) 4-(methylthio) 1H-imidazol 1-yl)methyl) N-(((phenylmethyl)amino)carbonyl) (1,1'-biphenyl) 2-sulphonamide]	0.06 mg/kg	0.7 mg/kg
0.2 nM	83 nM	CCCCc1nc(SC)c(C(=O)CC(=O)OCC)n1Cc1ccc(-c2ccccc2S(=O)(=O)NC(=O)NCCC)cc1 [Example 12]		
0.18 nM	38 nM	CCCCc1nc(SC)c(C(=O)C(=O)O)n1Cc1ccc(-c2ccccc2S(=O)(=O)NC(=O)NCc2ccccc2)cc1 [Example 10, 2-butyl 4-(methylthio) alpha oxo 1-((2'-(((((phenylmethyl)amino)carbonyl)amino)sulphonyl) (1,1'-biphenyl) 4-yl)methyl) 1-H-imidazole 5-acetic acid]		
0.08 nM	1 nM	CCCCc1nc(SC)c(C(=O)CC(=O)OCC)n1Cc1ccc(-c2ccccc2S(=O)(=O)NC(=O)NCc2ccccc2)cc1 [Example 21, ethyl 2-butyl 4-(methylthio) beta-oxo-1-((2'-(((((phenylmethyl)amino)carbonyl)amino)sulphonyl) (1,1'-biphenyl) 4-yl)methyl) 1H-imidazole 5-propanoate]	0.08 mg/kg	
